The series can be described thus: gradient 5% acetonitrile 3 min, to 50% in 2 min, to 85% in 15 min, held 3 min, 100 µL/min. The conditions noted are these: column: Zorbax Extend-C18 2.1 x 50 mm; eluents: water / acetonitrile, 0.1% formic acid. The procedure, abridged: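 Pure standards were analyzed in mixtures of ~100 molecules using HPLC coupled to a quadrupole time-of-flight mass spectrometer, in both positive and negative ionization mode. Separation used a Zorbax Extend-C18 column (2.1 × 50 mm, 1.8 μm) at 100 μL/min, with water and acetonitrile each containing 0.1% formic acid. Dead and dwell volumes were 40 μL and 900 μL, and data were collected over 3 months. Retention time was read from computationally picked adduct peaks, each inspected manually.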
In turn, `O=C(Nc1ccc(F)cc1)N1CCC(N2CCN(Cc3cccc(F)c3)C(=O)C2=O)CC1` displayed an RP-LC retention time of 722 s.

The compound `CCCN1CCN(CCCNC(=O)C(C)n2c3ccccc3c3cnn(C)c(=O)c32)CC1` (configuration not stated) yielded an RP-LC retention time of 571 s.

`CCc1cccc(NC(=O)N2CCC(n3cnnc3C3CC3)C2)c1` (configuration not stated) yielded an RP-LC retention time of 667 s.

Turning to `CCOC(=O)c1cc(S(=O)(=O)N2CCCC2C(=O)Nc2cc(F)ccc2F)cn1C` (configuration not stated), the RP-LC retention time was found to be 982 s.

`CCOc1ccc(NC(=O)c2cn(-c3cc(N4CCCC(C)C4)ncn3)cn2)cc1` (configuration not stated) had an RP-LC retention time of 1130 s.

In turn, `CC(C)CNC(=O)N1CCc2c(c(-c3nc(-c4ccc(F)cc4)no3)nn2C)C1` showed an RP-LC retention time of 940 s.

For the compound `COc1ccc(OC)c(NC(=O)CCc2c(-c3ccc(F)cc3)nc3ccccn23)c1`, the RP-LC retention time was 665 s.

With `CCCN1CCN(CCCNC(=O)CCCn2c(=O)c3cccn3c3ccc(F)cc32)CC1`, the RP-LC retention time is 584 s.

For the compound `Cc1nn2c(CNC(=O)c3ccco3)c(-c3ccccc3)nc2s1`, the RP-LC retention time came out at 728 s.

`COc1ccc(-c2nc(NCCN3CCCCC3C)c3ccccc3n2)cc1` (configuration not stated): the RP-LC retention time is 598 s.

The compound `CC(C)n1cnc(S(=O)(=O)N2CCC(C(=O)N3CCN(c4cccc(Cl)c4)CC3)CC2)c1` had an RP-LC retention time of 876 s.

Regarding `O=C(CN1CCN(Cc2ccccc2)C1=O)NC1CCN(Cc2ccccc2)CC1`, the RP-LC retention time came to 599 s.

`CCS(=O)(=O)c1ccc2c(c1)N(Cc1nc(-c3ccc(C)c(C)c3)no1)C(=O)CO2` had an RP-LC retention time of 1000 s.

`CCC(=O)N1CCc2cc(N3CC(C(=O)Nc4cc(C)ccc4OC)CC3=O)ccc21` (configuration not stated): the RP-LC retention time was 794 s.

In the case of `O=C(Nc1ccc2c(c1)OCO2)N1CCN(Cc2ccccc2)c2ncccc21`, the RP-LC retention time was 732 s.

For `COC(=O)c1cc(OCC(=O)Nc2cccc(Cl)c2)c2ccccc2n1`, the RP-LC retention time was determined as 821 s.

In the case of `O=C(NC1CCN(c2cc(-c3cccs3)[nH]n2)C1)c1ccccc1` (configuration not stated), the RP-LC retention time amounted to 695 s.

For the compound `CCOc1ccc(NC(=O)Cn2nc3c(N4CCSCC4)nccn3c2=O)cc1`, the RP-LC retention time is 816 s.

For the compound `O=C(Cn1cccc(-c2nc(-c3ccccc3)no2)c1=O)Nc1cccc(Br)c1`, the RP-LC retention time stood at 940 s.

`Cc1cc(C)cc(NC(=O)Nc2ccc3nncn3c2)c1` returned an RP-LC retention time of 738 s.

With `CC(C)Cn1c(=O)c(C(=O)NCCc2ccccn2)nc2cccnc21`, the RP-LC retention time is 604 s.

With `Cc1cccc(CNC(=O)CCc2nc3c(C)cccc3c(=O)n2C)c1`, the RP-LC retention time is 845 s.

`CCc1ccc(OCC(=O)Nc2nnc(SCc3nnc(-c4ccccc4C)o3)s2)cc1` gave an RP-LC retention time of 1070 s.

Consider `c1ccc(CNc2cc(-n3ccnc3)ncn2)cc1`, for which the RP-LC retention time was determined as 610 s.

The compound `Cc1ccc(-c2cc(C(=O)NCCc3sccc3C)c(C)[nH]2)cc1C` showed an RP-LC retention time of 1040 s.

On to `Cc1ccc(F)cc1NC(=O)c1cc2n(n1)CCCC2`, for which the RP-LC retention time was found to be 949 s.

Turning to `CCOc1ccc(-c2[nH]ncc2CNS(=O)(=O)Cc2c(F)cccc2Cl)cc1`, the RP-LC retention time was 882 s.

Compound `COc1cc(NC(=O)C2CCCN(c3cc(=O)n(C)c(=O)n3C)C2)cc(OC)c1OC` (configuration not stated) gave an RP-LC retention time of 854 s.

In turn, `CCC(=O)Oc1ccc(NC(=O)c2ccc(S(=O)(=O)N3CCCC3)cc2)cc1` came in with an RP-LC retention time of 884 s.

`COc1ccccc1N1CCN(C(=O)C2CCN(S(=O)(=O)c3cn(C(C)C)cn3)CC2)CC1` had an RP-LC retention time of 716 s.

In turn, `CCN1C(=O)c2cc(C(=O)NCc3ccccc3C)nn2CC1(C)C(=O)NC1CCCC1` (configuration not stated) came in with an RP-LC retention time of 884 s.

As for `Cc1ccc2c(c1Br)C(O)(CC(=O)c1ccc(F)cc1)C(=O)N2` (configuration not stated), the RP-LC retention time turned out to be 802 s.

These data come from the METLIN SMRT retention time set (Domingo-Almenara et al. 2019).
